In patent US20080076751A1, “Azetidinone Derivatives and Methods of Use Thereof” (priority 2006, published 2008) one finds Ki and IC50 data, which are given here for 15 compounds.

The target in one assay is T1, human NPC1L1 (Homo sapiens, UniProt Q9UHC9).
T1 construct: expressed in transfected cells; host or cells: HEK-293 (geneticin selection)
T1 sequence (Q9UHC9 22-1359): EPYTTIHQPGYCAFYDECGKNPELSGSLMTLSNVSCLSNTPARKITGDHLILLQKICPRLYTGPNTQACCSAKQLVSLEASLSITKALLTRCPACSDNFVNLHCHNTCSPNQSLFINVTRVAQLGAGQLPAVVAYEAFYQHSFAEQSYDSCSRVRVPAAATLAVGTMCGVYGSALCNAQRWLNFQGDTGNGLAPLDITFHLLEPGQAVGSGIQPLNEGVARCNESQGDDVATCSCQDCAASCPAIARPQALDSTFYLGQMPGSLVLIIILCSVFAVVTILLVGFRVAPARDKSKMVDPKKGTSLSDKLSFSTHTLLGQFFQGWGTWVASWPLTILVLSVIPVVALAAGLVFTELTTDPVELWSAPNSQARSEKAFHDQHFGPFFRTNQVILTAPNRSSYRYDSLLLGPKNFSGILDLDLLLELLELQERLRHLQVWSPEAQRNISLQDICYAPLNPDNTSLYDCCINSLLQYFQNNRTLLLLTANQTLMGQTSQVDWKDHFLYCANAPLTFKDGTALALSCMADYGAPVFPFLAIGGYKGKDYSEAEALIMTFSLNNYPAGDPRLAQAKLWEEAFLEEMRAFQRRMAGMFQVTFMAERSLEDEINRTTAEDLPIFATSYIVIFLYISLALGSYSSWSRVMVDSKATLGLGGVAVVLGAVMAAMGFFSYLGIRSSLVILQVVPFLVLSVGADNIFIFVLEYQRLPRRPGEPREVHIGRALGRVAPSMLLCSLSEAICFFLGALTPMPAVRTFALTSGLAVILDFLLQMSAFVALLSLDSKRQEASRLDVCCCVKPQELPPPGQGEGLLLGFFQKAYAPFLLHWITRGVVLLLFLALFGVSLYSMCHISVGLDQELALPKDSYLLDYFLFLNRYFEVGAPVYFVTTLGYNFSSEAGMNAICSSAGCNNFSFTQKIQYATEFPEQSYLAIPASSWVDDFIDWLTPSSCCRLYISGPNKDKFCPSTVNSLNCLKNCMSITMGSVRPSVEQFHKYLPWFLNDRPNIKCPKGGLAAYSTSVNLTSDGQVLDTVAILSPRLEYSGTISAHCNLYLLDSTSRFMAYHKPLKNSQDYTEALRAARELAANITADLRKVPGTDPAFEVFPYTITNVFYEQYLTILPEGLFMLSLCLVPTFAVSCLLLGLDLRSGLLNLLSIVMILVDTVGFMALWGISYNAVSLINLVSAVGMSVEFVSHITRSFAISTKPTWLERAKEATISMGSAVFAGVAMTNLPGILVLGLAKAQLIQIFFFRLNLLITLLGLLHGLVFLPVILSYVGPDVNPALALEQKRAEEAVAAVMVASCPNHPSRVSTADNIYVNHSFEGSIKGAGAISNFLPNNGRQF
The assay is described as follows: NPC1L1 binding assay (BODIPY-labeled glucuronidated ezetimibe competition), human. The conditions noted are these: HEK-293 cells expressing human NPC1L1, 4 hours at 37° C. As to the method:
HEK-293 cells expressing human NPC1L1 were plated into 384-well black/clear plates (BD Biosciences, Bedford Mass.) for binding experiments the following day. Cell growth media (DMEM, 10% fetal calf serum, 1 mg/mL geneticin, 100 Units/mL penicillin) was aspirated. Cell growth media ([…]) containing 250 nM BODIPY-labeled glucuronidated ezetimibe was added to each well. Cell growth media ([…]) containing the indicated concentration of compound was then added to the wells. Unlabeled glucuronidated ezetimibe ([…]) was used to determine nonspecific binding. The binding reaction was allowed to proceed for 4 hours at 37° C. Subsequently the cell growth media was aspirated and the cells washed once with PBS. The remaining fluorescent labeled glucuronidated ezetimibe bound to the cells was quantified using a FlexStation plate reader (Molecular Devices, Sunnyvale Calif.) to measure fluorescence intensity. Ki values were determined from competition binding curves (n=4 for each point) using Prism and Activity Base software.

Another assay has as its target T2, human-SP9215 (GPR119) (Homo sapiens, UniProt Q8TDV5).
T2 construct: expressed in transfected cells
T2 sequence (Q8TDV5 1-335): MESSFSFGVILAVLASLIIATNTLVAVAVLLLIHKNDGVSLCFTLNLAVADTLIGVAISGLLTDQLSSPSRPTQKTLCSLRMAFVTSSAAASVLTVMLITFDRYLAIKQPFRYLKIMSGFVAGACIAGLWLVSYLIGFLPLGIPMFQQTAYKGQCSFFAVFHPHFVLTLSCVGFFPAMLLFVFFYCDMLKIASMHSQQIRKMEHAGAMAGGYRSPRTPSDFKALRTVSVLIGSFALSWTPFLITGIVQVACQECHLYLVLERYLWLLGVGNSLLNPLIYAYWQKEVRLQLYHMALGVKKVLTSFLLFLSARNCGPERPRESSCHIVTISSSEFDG
Put plainly: GPR119 screening assay (LANCE cAMP, HEK 293 Human clone 3). Format: cell-based. The conditions noted are these: HEK 293 Human clone 3, LANCE cAMP; read-out: GPR119 cAMP IC5O. As to the method: • +100 mg BSA (MP Biomedicals faction V, #103703)=0.1% • +500 μL 1M HEPES (Cellgro #25-060-Cl)=5 mM • +75 μL RO-20 (Sigma B8279; 20 mM stock in DMSO stored in aliquots at −20° C.)=15 μM • (made fresh daily) B84 (N-[4-(methylsulfonyl)phenyl]-5-nitro-6-[4-(phenylthio)-1-piperidinyl]-4-pyrimidinamine, see WO 2004/065380): A 10 mM stock solution of the test compound in DMSO was prepared, aliquoted and stored at −20° C. For Totals—Dilute 1:33.3 in DMSO then 1:50 in Stimulation Buffer=6 μM in 2% DMSO (=3 μM B84 and 1% DMSO final). For Dose Response Curve -3 μL stock+7 μL DMSO+490 μL Stim Buffer=60 μM in 2% DMSO (=30 μM B84 and 1% DMSO final). (made fresh daily). Cell Line Human clone 3: HEK 293 cells stable transfected with human-SP9215 (GPR119)/pcDNA3.1 and also stable for pCRELuc, Stratagene. Cells are maintained in DMEM containing 10% FBS (Invitrogen #02-4006Dk, lot #1272302, heat inactivated), 1×MEM, 1× Pen/Strep, 0.1 mg/mL Hygromycin B, and 0.5 mg/mL G418. Cells are split 1:8 twice per week. cAMP Kit: LANCE™ cAMP 384 kit, Perkin Elmer #AD0263 Compound Dilutions • 1. Add DMSO to vials containing compounds to provide a 1 mg/mL solution. • 2. Dilute compounds to 60 μM in Stimulation buffer. Make ½ log dilutions into stimulation buffer containing 2% DMSO using the epMotion robot. 10 point dose response curve 1 nM to 30 μM. • 3. Compounds are run in quadruplicate, 2 separate dilutions for each, sets 1 and 1a. Assay Procedure • 1. The afternoon before the assay, replace the media in the flask of Human clone 3 cells with Optimem. (Gibco # 11058-021) NOTE: cells should be in culture 6-8 days. • 2. Next morning, pipet the cells gently off the flask using HBSS (at room temperature). • 3. Pellet the cells (1300 rpm, 7 minutes, room temperature) and resuspend in Stimulation Buffer at 2.5×10e6/mL (=5-8,000 cell/6 μL). Add 1:100 dilution of Alexa Fluor 647-anti cAMP antibody (provided in the kit) directly to the cell suspension. • 4. Into white 384-well plates (Matrix) add 6 μL of 2×B84, cmpds or stim buffer for nsb. They all contain 2% DMSO (=1% DMSO final). • Add 6 μL of the cell suspension to the wells. Incubate 30 minutes at room temperature. • For the std curve add 6 μL cAMP std solution diluted in Stim Buffer+2% DMSO according to kit directions (1000-3 nM). Add 6 μL of 1:100 anti-cAMP dilution in Stim Buffer to std wells. • Make Detection Mix according to kit instructions and incubate 15 minutes at room temperature. • Add 12 μL Detection Mix to all the wells.
Background: Time-resolved FRET reads energy transfer from a long-lived donor to a nearby acceptor.

Turning to `O=C(NC1CCCC1)N1CCC2(CC1)C(=O)N(c1ccccc1)C2c1ccccc1` (stereo not drawn), on human NPC1L1, the Ki turned out to be 31.2 µM. The same measure, in the same setting: as for `O=C(NCc1cccc(F)c1)N1CCC2(CC1)C(=O)N(c1ccccc1)C2c1ccccc1` (stereo not drawn), the figure is 26 µM. Same read-out and setting: with `O=C(Nc1ccccc1Cl)N1CCC2(CC1)C(=O)N(c1ccccc1)C2c1ccccc1` (stereo not drawn) the figure was 8.64 µM.

As for `O=C(NCc1ccccc1Cl)N1CCC2(CC1)C(=O)N(c1ccccc1)C2c1ccccc1` (stereo not drawn), on human NPC1L1, the Ki was found to be 17.6 µM. Still for that read-out and setting: as for `O=C(NC1CCCCC1)N1CCC2(CC1)C(=O)N(c1ccccc1)C2c1ccccc1` (stereo not drawn), the figure is 19.7 µM. As for `COC(=O)c1ccc(N2C(=O)C3(CCN(C(=O)c4ccc5c(c4)OCCCO5)CC3)C2c2ccc(Cl)cc2)cc1` (stereo not drawn), the IC50 at human-SP9215 (GPR119) turned out to be 1 µM. On the same count and under the same terms, with `CC(C)OC(=O)N1CCC2(CC1)C(=O)N(C(c1ccccc1)c1ccccc1)C2c1ccccc1` (stereo not drawn) the figure was 2 µM; with `N#Cc1ccc(N2C(=O)C3(CCN(C(=O)c4ccc5c(c4)OCCCO5)CC3)C2c2ccc(Cl)cc2)cc1` (stereo not drawn), 2.28 µM. Still for that read-out and setting: as for `COC(=O)c1ccc(N2C(=O)C3(CCN(C(=O)c4cc(OC)c(OC)c(OC)c4)CC3)C2c2ccc(Cl)cc2)cc1` (stereo not drawn), the figure is 2.72 µM; as for `COc1cccc(N2C(=O)C3(CCN(C(=O)c4cc(OC)c(OC)c(OC)c4)CC3)C2c2ccc(Cl)cc2)c1` (stereo not drawn), 3.8 µM. The same measure, in the same setting: as for `O=C(c1ccc2c(c1)OCCCO2)N1CCC2(CC1)C(=O)N(c1ccc([N+](=O)O)cc1)C2c1ccc(Cl)cc1` (stereo not drawn), the figure is 4.18 µM; as for `COc1cc(C(=O)N2CCC3(CC2)C(=O)N(c2ccc(F)cc2)C3c2ccc(Cl)cc2)cc(OC)c1OC` (stereo not drawn), 4.36 µM; as for `COc1cc(C(=O)N2CCC3(CC2)C(=O)N(c2cccc(C(F)(F)F)c2)C3c2ccc(Cl)cc2)cc(OC)c1OC` (stereo not drawn), 4.4 µM. With `O=C(c1ccc2c(c1)OCCCO2)N1CCC2(CC1)C(=O)N(c1ccc(C(F)(F)F)cc1)C2c1ccc(Cl)cc1` (stereo not drawn), the IC50 at human-SP9215 (GPR119) was found to be 4.46 µM. The same measure, in the same setting: as for `C[C@H](NC(=O)N1CCC2(CC1)C(=O)N(c1ccc(F)cc1)C2c1ccc(F)cc1)c1ccccc1` (stereo partly drawn), the figure is 4.68 µM.

As usually defined, the Ki is the equilibrium dissociation constant of an inhibitor or competing ligand from its target.
